# ChEMBL document CHEMBL6153076, “Discovery of novel JQ1 derivatives as dual ferroptosis and apoptosis inducers for the treatment of triple-negative breast cancer” (Eur J Med Chem, 2025)
# The source made the active and inactive calls. The calls are words filed in the database; no cut-off is given here.
# Assays:
# MDA-MB-231 [1] = test: Induction of ferroptosis in human MDA-MB-231 cells assessed as increase in intracellular LPO accumulation incubated for 48 hrs by confocal laser scanning microscopic analysis; assay type: functional, cell-based; conditions: dose 0.2-5 µM
# MDA-MB-231 [2] = test: Induction of ferroptosis in human MDA-MB-231 cells assessed as decrease in GSH level incubated for 48 hrs; assay type: functional, cell-based; conditions: dose 0.2-5 µM
# MDA-MB-231 [3] = test: Induction of cell cycle arrest in human MDA-MB-231 cells assessed as accumulation of cells at G2/M phase at 0.2 uM incubated for 48 hrs by propidium iodide staining flow cytometric analysis (reference value: 8.69%); assay type: functional
# BT-549 = test: cells; conditions: Homo sapiens, BT-549, 72 h
# Description: Antiproliferative activity against human BT-549 cells assessed as inhibition of cell proliferation incubated for 72 hrs by MTT assay
# MDA-MB-231 [4] = test: Induction of apoptosis in human MDA-MB-231 cells assessed as necrotic cells at 1 uM incubated for 48 hrs by Annexin V/PI staining based flow cytometry analysis (reference value: 0.03%); assay type: functional
# MDA-MB-231 [5] = test: Induction of apoptosis in human MDA-MB-231 cells assessed as early apoptotic cells at 0.2 uM incubated for 48 hrs by Annexin V/PI staining based flow cytometry analysis (reference value: 0.80%); assay type: functional
# [6] = target: Bromodomain-containing protein 4 (Homo sapiens, UniProt O60885); test: Inhibition of BRD4 (unknown origin) incubated for 120 mins by TR-FRET assay
# MDA-MB-231 [7] = test: Induction of apoptosis in human MDA-MB-231 cells assessed as upregulation of C-myc expression at 0.2 to 5 uM; assay type: functional, cell-based; conditions: dose 0.2-5 µM
# MDA-MB-231 [8] = test: Antitumor activity against human MDA-MB-231 cells xenografted in nude mouse assessed as tumor growth inhibition at 50 mg/kg, ip administered daily for 21 days; assay type: functional; conditions: MDA-MB-231, 504 h, time 21 day, read-out: TGI
# [9] = Cytotoxicity against human MCF-10A cells assessed as inhibition of cell proliferation incubated for 72 hrs by MTT assay; assay type: toxicity, cell-based
# [10] = Toxicity in nude mouse xenografted with human MDA-MB-231 cells at 50 mg/kg, ip administered daily for 21 days; assay type: organism-based; conditions: in vivo, 504 h, time 21 day
# MDA-MB-231 [11] = test: Induction of apoptosis in human MDA-MB-231 cells assessed as necrotic cells at 0.2 uM incubated for 48 hrs by Annexin V/PI staining based flow cytometry analysis (reference value: 0.03%); assay type: functional
# MDA-MB-231 [12] = test: Anti-metastatic activity in human MDA-MB-231 cells assessed as inhibition of cell migration incubated for 24 hrs by inverted microscopic analysis; assay type: functional, cell-based; conditions: dose 0.2-5 µM
# MDA-MB-231 [13] = test: Induction of apoptosis in human MDA-MB-231 cells assessed as […] expression at 0.2 to 5 uM; assay type: functional, cell-based; conditions: dose 0.2-5 µM
# MDA-MB-231 [14] = test: Induction of cell cycle arrest in human MDA-MB-231 cells assessed as accumulation of cells at S phase at 0.2 uM incubated for 48 hrs by propidium iodide staining flow cytometric analysis (reference value: 26.75%); assay type: functional
# MDA-MB-231 [15] = test: Induction of cell cycle arrest in human MDA-MB-231 cells assessed as accumulation of cells at S phase at 5 uM incubated for 48 hrs by propidium iodide staining flow cytometric analysis (reference value: 26.75%); assay type: functional
# MDA-MB-231 [16] = test: Downregulation of HO-1 expression in human MDA-MB-231 cells at 0.2 to 5 uM; assay type: functional, cell-based; conditions: dose 0.2-5 µM
# MDA-MB-231 [17] = test: Induction of apoptosis in human MDA-MB-231 cells assessed as viable cells at 5 uM incubated for 48 hrs by Annexin V/PI staining based flow cytometry analysis (reference value: 97.85%); assay type: functional; conditions: read-out: Activity
# MDA-MB-231 [18] = test: Induction of cell cycle arrest in human MDA-MB-231 cells assessed as accumulation of cells at G2/M phase at 1 uM incubated for 48 hrs by propidium iodide staining flow cytometric analysis (reference value: 8.69%); assay type: functional
# MDA-MB-231 [19] = test: cells; conditions: Homo sapiens, MDA-MB-231, 72 h
# Description: Antiproliferative activity against human MDA-MB-231 cells assessed as inhibition of cell proliferation incubated for 72 hrs by MTT assay
# MDA-MB-231 [20] = test: Induction of cell cycle arrest in human MDA-MB-231 cells assessed as accumulation of cells at G0/G1 phase at 5 uM incubated for 48 hrs by propidium iodide staining flow cytometric analysis (reference value: 64.56 %); assay type: functional
# MDA-MB-231 [21] = test: Induction of cell cycle arrest in human MDA-MB-231 cells assessed as accumulation of cells at G0/G1 phase at 0.2 uM incubated for 48 hrs by propidium iodide staining flow cytometric analysis (reference value: 64.56 %); assay type: functional
# MDA-MB-231 [22] = test: Downregulation of SLC3A2 expression in human MDA-MB-231 cells; assay type: functional, cell-based; conditions: dose 0.2-5 µM
# MDA-MB-231 [23] = test: Induction of ferroptosis in human MDA-MB-231 cells assessed as increase in intracellular MDA accumulation incubated for 48 hrs; assay type: functional, cell-based; conditions: dose 0.2-5 µM
# MDA-MB-231 [24] = test: Induction of cell cycle arrest in human MDA-MB-231 cells assessed as accumulation of cells at G2/M phase at 5 uM incubated for 48 hrs by propidium iodide staining flow cytometric analysis (reference value: 8.69%); assay type: functional
# MDA-MB-231 [25] = test: Downregulation of FSP1 expression in human MDA-MB-231 cells; assay type: functional, cell-based; conditions: dose 0.2-5 µM
# MDA-MB-231 [26] = test: Induction of apoptosis in human MDA-MB-231 cells assessed as late apoptotic cells at 1 uM incubated for 48 hrs by Annexin V/PI staining based flow cytometry analysis (reference value: 0.14%); assay type: functional
# MDA-MB-231 [27] = test: Induction of apoptosis in human MDA-MB-231 cells assessed as late apoptotic cells at 5 uM incubated for 48 hrs by Annexin V/PI staining based flow cytometry analysis (reference value: 0.14%); assay type: functional
# MDA-MB-231 [28] = test: Induction of apoptosis in human MDA-MB-231 cells assessed as late apoptotic cells at 0.2 uM incubated for 48 hrs by Annexin V/PI staining based flow cytometry analysis (reference value: 0.14%); assay type: functional
# MDA-MB-231 [29] = test: Induction of apoptosis in human MDA-MB-231 cells assessed as early apoptotic cells at 1 uM incubated for 48 hrs by Annexin V/PI staining based flow cytometry analysis (reference value: 0.80%); assay type: functional
# MDA-MB-231 [30] = test: Induction of ferroptosis in human MDA-MB-231 cells assessed as increase in intracellular Fe2+ level at 0.2 to 5 uM incubated for 48 hrs by FerroOrange staining based flow cytometry analysis; assay type: functional, cell-based; conditions: dose 0.2-5 µM
# MDA-MB-231 [31] = test: Induction of cell cycle arrest in human MDA-MB-231 cells assessed as accumulation of cells at G0/G1 phase at 1 uM incubated for 48 hrs by propidium iodide staining flow cytometric analysis (reference value: 64.56 %); assay type: functional
# MDA-MB-231 [32] = test: Induction of apoptosis in human MDA-MB-231 cells assessed as viable cells at 0.2 uM incubated for 48 hrs by Annexin V/PI staining based flow cytometry analysis (reference value: 97.85%); assay type: functional; conditions: read-out: Activity
# MDA-MB-231 [33] = test: Induction of apoptosis in human MDA-MB-231 cells assessed as viable cells at 1 uM incubated for 48 hrs by Annexin V/PI staining based flow cytometry analysis (reference value: 97.85%); assay type: functional; conditions: read-out: Activity
# MDA-MB-231 [34] = test: Induction of apoptosis in human MDA-MB-231 cells assessed as upregulation of Bax expression at 0.2 to 5 uM; assay type: functional, cell-based; conditions: dose 0.2-5 µM
# MDA-MB-231 [35] = test: Induction of apoptosis in human MDA-MB-231 cells assessed as necrotic cells at 5 uM incubated for 48 hrs by Annexin V/PI staining based flow cytometry analysis (reference value: 0.03%); assay type: functional
# MDA-MB-231 [36] = test: Downregulation of GPX4 expression in human MDA-MB-231 cells by Western blot analysis; assay type: functional, cell-based; conditions: dose 0.2-5 µM
# MDA-MB-231 [37] = test: Antitumor activity against human MDA-MB-231 cells xenografted in nude mouse assessed as suppression of tumor growth at 50 mg/kg, ip administered daily for 21 days; assay type: functional, organism-based; conditions: time 21.0 day
# MDA-MB-231 [38] = test: Downregulation of NRF2 expression in human MDA-MB-231 cells at 0.2 to 5 uM; assay type: functional, cell-based; conditions: dose 0.2-5 µM
# MDA-MB-231 [39] = test: Downregulation of FTH1 expression in human MDA-MB-231 cells; assay type: functional, cell-based; conditions: dose 0.2-5 µM
# MDA-MB-231 [40] = test: Induction of cell cycle arrest in human MDA-MB-231 cells assessed as accumulation of cells at S phase at 1 uM incubated for 48 hrs by propidium iodide staining flow cytometric analysis (reference value: 26.75%); assay type: functional
# MDA-MB-231 [41] = test: Downregulation of SLC7A11 expression in human MDA-MB-231 cells; assay type: functional, cell-based; conditions: dose 0.2-5 µM
# MDA-MB-231 [42] = test: Induction of apoptosis in human MDA-MB-231 cells assessed as early apoptotic cells at 5 uM incubated for 48 hrs by Annexin V/PI staining based flow cytometry analysis (reference value: 0.80%); assay type: functional
# MDA-MB-231 [43] = test: Downregulation of BRD4 expression in human MDA-MB-231 cells by Western blot analysis; assay type: functional, cell-based; conditions: dose 0.2-5 µM
smiles,measurement,setting,value
Cc1sc2c(c1C)C(c1ccc(Cl)cc1)=N[C@@H](CC(=O)NC1CCN(C(=O)CCl)CC1)c1nnc(C)n1-2,Activity,MDA-MB-231 [1],Dose-dependent-effect
same,Activity,MDA-MB-231 [2],Dose-dependent-effect
same,Activity,MDA-MB-231 [3],10.25%
same,IC50,BT-549,520 nM
same,Activity,MDA-MB-231 [4],1.44%
same,Activity,MDA-MB-231 [5],6.1%
same,IC50,[6],331 nM
same,Activity,MDA-MB-231 [7],Active
same,inhibition in vivo at 50 mg/kg,MDA-MB-231 [8],51.4%
same,IC50 at 72 h,[9],2560 nM
same,Activity,[10],Non-toxic
same,Activity,MDA-MB-231 [11],0.68%
same,Activity,MDA-MB-231 [12],Dose-dependent-effect
same,Activity,MDA-MB-231 [13],Active
same,Activity,MDA-MB-231 [14],28.88%
same,Activity,MDA-MB-231 [15],32.17%
same,Activity,MDA-MB-231 [16],Active
same,viability at 5 µM,MDA-MB-231 [17],59.7%
same,Activity,MDA-MB-231 [18],15.47%
same,IC50,MDA-MB-231 [19],490 nM
same,Activity,MDA-MB-231 [20],42.44%
same,Activity,MDA-MB-231 [21],60.87%
same,Activity,MDA-MB-231 [22],Dose-dependent-effect
same,Activity,MDA-MB-231 [23],Dose-dependent-effect
same,Activity,MDA-MB-231 [24],25.39%
same,Activity,MDA-MB-231 [25],Dose-dependent-effect
same,Activity,MDA-MB-231 [26],9.51%
same,Activity,MDA-MB-231 [27],21.27%
same,Activity,MDA-MB-231 [28],5.14%
same,Activity,MDA-MB-231 [29],16.51%
same,Activity,MDA-MB-231 [30],Active
same,Activity,MDA-MB-231 [31],53.71%
same,viability at 0.2 µM,MDA-MB-231 [32],88%
same,viability at 1 µM,MDA-MB-231 [33],72.5%
same,Activity,MDA-MB-231 [34],Active
same,Activity,MDA-MB-231 [35],0.7%
same,Activity,MDA-MB-231 [36],Dose-dependent-effect
same,Activity,MDA-MB-231 [37],Active
same,Activity,MDA-MB-231 [38],Active
same,Activity,MDA-MB-231 [39],Dose-dependent-effect
same,Activity,MDA-MB-231 [40],30.62%
same,Activity,MDA-MB-231 [41],Dose-dependent-effect
same,Activity,MDA-MB-231 [42],18.2%
same,Activity,MDA-MB-231 [43],Dose-dependent-effect
